In brackets after ≈: the same amount, converted by molar mass. Several values for one entry are separate records, joined by “and”; a condition that tells them apart may be missing. Identical values can stand only once. Like-named read-outs stand apart in the source and are kept apart here.
Assays:
[1] = test system: HCT-116; assay: MTT cytotoxicity on colon cancer cell line HCT-116; format: cell-based; conditions: Homo sapiens, mean ± SD
Protocol: (§1) Diverse human cancer cell lines: liver cancer cells (HepG2), colon cancer cell line (HCT-116), and breast cancer cell line (MCF-7) were brought from VACSERA Tissue Culture Unit (Giza, Egypt). RPMI-1640 media enhanced with 10% fetal bovine serum and […] gentamycin were employed to culture the cells. The cells were incubated at 37 °C with 5% CO2. To determine the cytotoxic activity, cells were treated with various doses (0–100 µg/ mL) of B. velezensis DM extract or Doxorubicin, and their viability compared to untreated controls was assessed. Compound (1) cytotoxic potential was evaluated against HCT-116 as well as normal epithelial cells (THLE2) to calculate the selectivity index (SI) as formerly depicted.
(§2) IC50 was calculated by the Graph Pad Prism (version 8, San Diego, CA, USA) (n = 3 replicates). Data are presented as mean ± SD.

[2] = test system: THLE-2 normal cell line; assay: Cytotoxicity on normal epithelial cells THLE-2 (selectivity index); format: cell-based; conditions: for IC50: Homo sapiens, THLE-2, normal cell line, mean ± SD; for SI (selectivity index): THLE-2 versus HCT-116
Protocol: as §1, §2

[3] = Antioxidant ABTS assay; conditions: mean ± SD
Protocol: Antioxidant ABTS assay: the capacity of B. velezensis DM extract to scavenge ABTS radical cations was assessed compared to Quercetin at a range of concentrations, including 300, 150, 75, 25, and 10 µg/ mL [38].
as §2

[4] = Antioxidant DPPH assay; conditions: mean ± SD
Protocol: Antioxidant DPPH assay: To inspect the antioxidant potential of B. velezensis DM extract, a methodology reported by Nahar et al. was used compared to Trolox. IC50 was calculated by the Graph Pad Prism (version 8, San Diego, CA, USA) (n = 3 replicates). Data are presented as mean ± SD.

[5] = compound (1) experiment, read-out: IC50 HCT-116 (Table 4)

Structure (SMILES) | IC50 [1, 5] [µg/mL] | IC50 [2] [µg/mL] | SI (selectivity index) [2] | IC50 ([1]; MTT, 0–100 µg/mL, n = 3, read-out: IC50 HCT-116 (Table 3)) [µg/mL] | ABTS (IC50) [3] [µg/mL] | DPPH (IC50) [4] [µg/mL]
CNC=C(CC(O)C(O)CO)NC (stereo not drawn) [Compound (1), 5,6-di(methylamino)hex-5-ene-1,2,3-triol] | 27 ± 1.85 (≈ 142 µM) | 68.7 ± 3.34 (≈ 361 µM) | 2.5 and 2.54 |  |  | 
COc1cccc2c1C(=O)c1c(O)c3c(c(O)c1C2=O)C[C@@](O)(C(=O)CO)C[C@@H]3O[C@H]1C[C@H](N)[C@H](O)[C@H](C)O1 [Doxorubicin (DOX), Doxorubicin] | 11.7 ± 0.4 (≈ 21.5 µM) | 17.4 ± 1.25 (≈ 32.1 µM) | 1.49 | 4.82 ± 0.18 (≈ 8.87 µM) |  | 
O=c1c(O)c(-c2ccc(O)c(O)c2)oc2cc(O)cc(O)c12 [Quercetin] |  |  |  |  | 42.13 ± 1.92 | 
Cc1c(C)c2c(c(C)c1O)CCC(C)(C(=O)O)O2 (stereo not drawn) [Trolox] |  |  |  |  |  | 113.31 ± 4.2
